Results: patent publication US9289428B2, “Conveniently injectable or implantable sustained-release antioxidant formulations for therapies of ocular maladies or cancer” (RAMSCOR, INC., priority 2011, dated 2016)
Like-named read-outs stand apart in the source and are kept apart here. Each block holds one compound with its values, some of them ahead of it.

Legend:
[1] = Concentration of active agent in the rabbit eye after injection of a sustained release formulation into the vitreous; format: in vivo
Protocol: A 10 μL unit dose of either formulation 1 or formulation 2 was injected into the eyes of two rabbits, and the concentration of timolol or dexamethasone (dex) remaining in the eye tested at 7 days and 14 days thereafter. A 50 μL unit dose was injected into the vitreous of two rabbit's eyes, and the concentrations of active agent detected 7 days thereafter and averaged. Timalol was detected at 8.93 μg/mL; Dex was detected at 2.82 μg/mL.
A formulation consisting of 20% timolol maleate:10% Reservatrol:70% (1:1 ATEC:EA) was prepared by mixing. A unit dose of 50 μL was injected into the vitreous of two rabbit eyes, and Reservatrol was detected at 0.64 μg/mL (average) 7 days thereafter.

B16 melanoma tumors = experiment: Mouse B16 melanoma tumor model, single intratumoral implantation of sustained release antioxidant formulation; format: in vivo, C57 mouse
From the text: A mouse model was used to study the in vivo effect of sustained release antioxidant formulations on melanoma tumors. Mouse B16 melanoma Cell lines were obtained from NCI-Frederick, Md. C57 Mice were obtained from Simonsen Laboratories in Gilroy, Calif. Anesthesia was Ketamine/Xylazine/Acepromacine 1:1:0.03 mixture. […] cell suspension and 1×1 mm tumor pieces were preserved in 90% Fetal Bovine Serum and 10% DMSO in liquid nitrogen. Tumor was also maintained by in vivo serial subcutaneous passage.
Mice of either sex, weighing 16-18 grams, were anesthetized with the ketamine mixture. Subcutaneous implantation of the B16 suspension (100 ul of 2×10^6/ml) or solid tumor piece were performed in the back or nape of the mouse. Tumors were treated when tumor reached the average size of 6×6 mm in diameter and weighed approximately 0.6-0.8 grams in 7-10 days.
Treatment consisted of a single intratumoral implantation of semi-solid drug formulations. Each formulation consisted of 2 mg of active pharmaceutical ingredient (API): either Resveratrol, Astaxanthin, or Melatonin; in either tocopherol acetate (EA), benzyl benzoate (BB), or acetyltriethyl citrate (ATEC) excipients (all Sigma Chemical). The ratio of API and excipient was 80:20 by weight.

concentration at 7 days ([1]; rabbit, in vivo): 8930 ng/mL
Structure (SMILES): CC(C)(C)NC[C@H](O)COc1nsnc1N1CCOCC1 [Timalol, timolol]

Structure (SMILES): CC1=C(/C=C/C(C)=C/C=C/C(C)=C/C=C/C=C(C)/C=C/C=C(C)/C=C/C2=C(C)C(=O)[C@@H](O)CC2(C)C)C(C)(C)C[C@H](O)C1=O [astaxanthin]
time to complete clinical resolution of the tumor (B16 melanoma tumors; after the single treatment): 5-7 weeks
time to peeling of overlying skin surface and beginning ulceration (B16 melanoma tumors; after the single treatment): about one
tumor growth after treatment (B16 melanoma tumors; after the single treatment): stopped growing immediately
condition and body weight of the animals (B16 melanoma tumors; until termination of the experiment on day 90): remained active and continued to gain weight

concentration at 7 days ([1]; other: intravitreal injection, 50 μL unit dose of 20% timolol maleate:10% Reservatrol:70% (1:1 ATEC:EA) injected into vitreous of two rabbit eyes, 7 days thereafter, average, read-out: concentration of Reservatrol detected in the vitreous): 640 ng/mL
Structure (SMILES): Oc1ccc(/C=C/c2cc(O)cc(O)c2)cc1 [Reservatrol, 3,5,4′-trihydroxy-trans-stilbene]

concentration at 7 days ([1]; rabbit, in vivo): 2820 ng/mL
Structure (SMILES): C[C@@H]1C[C@H]2[C@@H]3CCC4=CC(=O)C=C[C@]4(C)[C@@]3(F)[C@@H](O)C[C@]2(C)[C@@]1(O)C(=O)CO [Dex, dexamethasone]
